Laboratory results published in patent US7759510B2, “Platinum complexes and methods of use” (University of South Florida, priority 2003, dated 2010).
Like-named read-outs stand apart in the source and are kept apart here.

Tested on: A549 cells
Assay: MTT assay, percent survival of A549 cells
Assay type: cell-based
Description: 1. Prepare a suspension of A549 cells at 2×10^5 cells per mL in supplemented DMEM/F12 growth medium.
2. Plate 2×10^4 cells per well in a 96 well cell culture plate by adding 100 μL of stock suspension to each well.
3. For each platinum compound (already in solution), prepare a readily usable stock solution in DMEM/F12 medium.
4. For each compound generate triplicate trials of 0, 10, 20, 30, 40, 50, 60, and 70 μM concentration. This is achieved in situ by adding appropriate volumes of stock solution to each well along with the volume of untreated medium necessary to generate the desired concentration in a final volume of 200 μL.
5. Gently agitate plates to mix contents. Incubate at 37° C., 7% CO2 for 45 hours.
6. Add 20 μL of 5 mg/mL MTT solution (in PBS) to each well.
7. Gently agitate plates to mix contents and incubate an additional 3 hours to allow product development.
8. Remove plates from incubator and agitate to cause settling of formazan product.
9. Aspirate out liquid contents of each well using needle and syringe and discard.
10. Add 200 μL DMSO to each well to dissolve formazan product.
11. Agitate plates until all of the formazan product is in solution and no purple crystals remain on the bottom surface of the wells.
12. Read the absorbance of each well at […] using Varian software for Cary 50 UV-vis Spectrophotometer with fiber optic probe accessory.
(§1) MTT assays are used for the quantitative determination of cellular proliferation and activation and for the quantitation of in vitro tumor cell sensitivity to anti-cancer compounds. The assay is based on the cleavage of the yellow tetrazolium salt MTT into purple colored formazan by metabolically active cells. Solubilized formazan product can be photometrically quantitated using an ELISA plate reader. A decrease in the number of living cells results in a decrease in total metabolic activity which leads to a decrease in color formation. Platinum complexes of the present invention were tested in MTT assays using A549 cells to determine anti-cancer cell activity. […] FIGS. 1, 2, and 4 show percent survival versus platinum complex concentration in graphical form.
as §1, with “FIGS. 8, 9,” for “FIGS. 1, 2,”, “and 11” for “and 4”

CO[C@H]1O[C@H](CO)[C@@H](O)[C@H](O)[C@@H]1O [Methyl alpha-D-Mannopyranoside]
IC50 (Homo sapiens, Table 7, A549, linear trend from percent survival vs. concentration data, read-out: Calculated IC 50 (uM concentration)): 50.1 µM
Average Absorbance (Table 6, A549, 10 μM): 2.4582
Percent Survival (Table 6, A549, 10 μM): 104.1125%
Average Absorbance (Table 6, A549, 20 μM): 2.4610
Percent Survival (Table 6, A549, 20 μM): 104.2311%
Average Absorbance (Table 6, A549, 30 μM): 2.1544
Percent Survival (Table 6, A549, 30 μM): 91.2456%
Average Absorbance (Table 6, A549, 40 μM): 1.1005
Percent Survival (Table 6, A549, 40 μM): 46.6096%
Average Absorbance (Table 6, A549, 50 μM): 0.6631
Percent Survival (Table 6, A549, 50 μM): 28.0844%
Average Absorbance (Table 6, A549, 60 μM): 0.9420
Percent Survival (Table 6, A549, 60 μM): 39.8967%
Average Absorbance (Table 6, A549, 70 μM): 0.8479
Percent Survival (Table 6, A549, 70 μM): 35.9112%
Average Absorbance (Table 8, A549, 10 μM): 2.6117
Percent Survival (Table 8, A549, 10 μM): 106.9098%
Average Absorbance (Table 8, A549, 20 μM): 2.4353
Percent Survival (Table 8, A549, 20 μM): 99.6889%
Average Absorbance (Table 8, A549, 30 μM): 1.7315
Percent Survival (Table 8, A549, 30 μM): 70.8789%
Average Absorbance (Table 8, A549, 40 μM): 0.6173
Percent Survival (Table 8, A549, 40 μM): 25.2691%
Average Absorbance (Table 8, A549, 50 μM): 0.4370
Percent Survival (Table 8, A549, 50 μM): 17.8886%
Average Absorbance (Table 8, A549, 60 μM): 0.5017
Percent Survival (Table 8, A549, 60 μM): 20.5371%
Average Absorbance (Table 8, A549, 70 μM): 0.5339
Percent Survival (Table 8, A549, 70 μM): 21.8552%

Caffeine
Average Absorbance (Table 9, A549, 10 μM): 0.4606
Percent Survival (Table 9, A549, 10 μM): 72.24%
Average Absorbance (Table 9, A549, 20 μM): 0.3935
Percent Survival (Table 9, A549, 20 μM): 61.71%
Average Absorbance (Table 9, A549, 30 μM): 0.2016
Percent Survival (Table 9, A549, 30 μM): 31.62%
Average Absorbance (Table 9, A549, 40 μM): 0.08893
Percent Survival (Table 9, A549, 40 μM): 13.95%
Average Absorbance (Table 9, A549, 50 μM): 0.04983
Percent Survival (Table 9, A549, 50 μM): 7.815%
Average Absorbance (Table 9, A549, 60 μM): 0.06103
Percent Survival (Table 9, A549, 60 μM): 9.571%
Average Absorbance (Table 9, A549, 70 μM): 0.05103
Percent Survival (Table 9, A549, 70 μM): 8.003%

CC(=O)N[C@H]1C(O)O[C@H](CO)[C@@H](O)[C@@H]1O (some centres unmarked) [N-acetyl glucosamine]
Average Absorbance (Table 9, A549, 10 μM): 0.6179
Percent Survival (Table 9, A549, 10 μM): 96.89%
Average Absorbance (Table 9, A549, 20 μM): 0.378
Percent Survival (Table 9, A549, 20 μM): 59.27%
Average Absorbance (Table 9, A549, 30 μM): 0.1735
Percent Survival (Table 9, A549, 30 μM): 27.21%
Average Absorbance (Table 9, A549, 40 μM): 0.02397
Percent Survival (Table 9, A549, 40 μM): 3.758%
Average Absorbance (Table 9, A549, 50 μM): 0.0397
Percent Survival (Table 9, A549, 50 μM): 6.226%
Average Absorbance (Table 9, A549, 60 μM): 0.05523
Percent Survival (Table 9, A549, 60 μM): 8.662%
Average Absorbance (Table 9, A549, 70 μM): 0.01897
Percent Survival (Table 9, A549, 70 μM): 2.974%

Safranin
Average Absorbance (Table 9, A549, 10 μM): 0.4933
Percent Survival (Table 9, A549, 10 μM): 77.35%
Average Absorbance (Table 9, A549, 20 μM): 0.4394
Percent Survival (Table 9, A549, 20 μM): 68.9%
Average Absorbance (Table 9, A549, 30 μM): 0.2197
Percent Survival (Table 9, A549, 30 μM): 34.46%
Average Absorbance (Table 9, A549, 40 μM): 0.07453
Percent Survival (Table 9, A549, 40 μM): 11.69%
Average Absorbance (Table 9, A549, 50 μM): 0.05293
Percent Survival (Table 9, A549, 50 μM): 8.301%
Average Absorbance (Table 9, A549, 60 μM): 0.0432
Percent Survival (Table 9, A549, 60 μM): 6.775%
Average Absorbance (Table 9, A549, 70 μM): 0.05447
Percent Survival (Table 9, A549, 70 μM): 8.541%

NC(=O)c1ccc(N)nc1 [6-Aminonicotinamide]
IC50 (Homo sapiens, A549, read-out: Calculated IC 50 (uM concentration)): 53.1 µM
Average Absorbance (Table 6, A549, 10 μM): 2.3742
Percent Survival (Table 6, A549, 10 μM): 100.5548%
Average Absorbance (Table 6, A549, 20 μM): 2.4321
Percent Survival (Table 6, A549, 20 μM): 103.0071%
Average Absorbance (Table 6, A549, 30 μM): 2.2814
Percent Survival (Table 6, A549, 30 μM): 96.6245%
Average Absorbance (Table 6, A549, 40 μM): 1.7213
Percent Survival (Table 6, A549, 40 μM): 72.9025%
Average Absorbance (Table 6, A549, 50 μM): 0.8618
Percent Survival (Table 6, A549, 50 μM): 36.4999%
Average Absorbance (Table 6, A549, 60 μM): 0.7739
Percent Survival (Table 6, A549, 60 μM): 32.7771%
Average Absorbance (Table 6, A549, 70 μM): 0.8536
Percent Survival (Table 6, A549, 70 μM): 36.1526%
Average Absorbance (Table 8, A549, 10 μM): 2.4711
Percent Survival (Table 8, A549, 10 μM): 101.1544%
Average Absorbance (Table 8, A549, 20 μM): 2.4672
Percent Survival (Table 8, A549, 20 μM): 100.9947%
Average Absorbance (Table 8, A549, 30 μM): 1.9896
Percent Survival (Table 8, A549, 30 μM): 81.4442%
Average Absorbance (Table 8, A549, 40 μM): 1.0963
Percent Survival (Table 8, A549, 40 μM): 44.8770%
Average Absorbance (Table 8, A549, 50 μM): 0.6485
Percent Survival (Table 8, A549, 50 μM): 26.5463%
Average Absorbance (Table 8, A549, 60 μM): 0.5811
Percent Survival (Table 8, A549, 60 μM): 23.7873%
Average Absorbance (Table 8, A549, 70 μM): 0.6294
Percent Survival (Table 8, A549, 70 μM): 25.7645%

Cn1c(=O)c2[nH]cnc2n(C)c1=O [Theophylline]
Average Absorbance (Table 9, A549, 10 μM): 0.5681
Percent Survival (Table 9, A549, 10 μM): 89.1%
Average Absorbance (Table 9, A549, 20 μM): 0.3864
Percent Survival (Table 9, A549, 20 μM): 60.6%
Average Absorbance (Table 9, A549, 30 μM): 0.2159
Percent Survival (Table 9, A549, 30 μM): 33.86%
Average Absorbance (Table 9, A549, 40 μM): 0.0585
Percent Survival (Table 9, A549, 40 μM): 9.174%
Average Absorbance (Table 9, A549, 50 μM): 0.0047
Percent Survival (Table 9, A549, 50 μM): 0.7371%
Average Absorbance (Table 9, A549, 60 μM): 0.03173
Percent Survival (Table 9, A549, 60 μM): 4.976%
Average Absorbance (Table 9, A549, 70 μM): −0.001567
Percent Survival (Table 9, A549, 70 μM): −0.2457%

Methylene blue
Average Absorbance (Table 6, A549, 10 μM): 2.3750
Percent Survival (Table 6, A549, 10 μM): 100.5887%
Average Absorbance (Table 6, A549, 20 μM): 2.2927
Percent Survival (Table 6, A549, 20 μM): 97.1030%
Average Absorbance (Table 6, A549, 30 μM): 2.2510
Percent Survival (Table 6, A549, 30 μM): 95.3369%
Average Absorbance (Table 6, A549, 40 μM): 1.5702
Percent Survival (Table 6, A549, 40 μM): 66.5029%
Average Absorbance (Table 6, A549, 50 μM): 0.8542
Percent Survival (Table 6, A549, 50 μM): 36.1781%
Average Absorbance (Table 6, A549, 60 μM): 1.1911
Percent Survival (Table 6, A549, 60 μM): 50.4468%
Average Absorbance (Table 6, A549, 70 μM): 0.9505
Percent Survival (Table 6, A549, 70 μM): 40.2567%
IC50 (Table 7, A549, linear trend from percent survival vs. concentration data, read-out: Calculated IC 50 (uM concentration)): 56.4 µM
Average Absorbance (Table 8, A549, 10 μM): 2.5299
Percent Survival (Table 8, A549, 10 μM): 103.5613%
Average Absorbance (Table 8, A549, 20 μM): 2.1653
Percent Survival (Table 8, A549, 20 μM): 88.6365%
Average Absorbance (Table 8, A549, 30 μM): 1.6536
Percent Survival (Table 8, A549, 30 μM): 67.6900%
Average Absorbance (Table 8, A549, 40 μM): 0.7522
Percent Survival (Table 8, A549, 40 μM): 30.7913%
Average Absorbance (Table 8, A549, 50 μM): 0.6302
Percent Survival (Table 8, A549, 50 μM): 25.7972%
Average Absorbance (Table 8, A549, 60 μM): 0.7701
Percent Survival (Table 8, A549, 60 μM): 31.5240%
Average Absorbance (Table 8, A549, 70 μM): 0.7481
Percent Survival (Table 8, A549, 70 μM): 30.6234%
